Values joined by “and” are separate entries in the source; they are usually repeats but may differ in a detail not shown here. Equal values may be shown once. Inconclusive results are not listed.
Test system: CD8F1 mice, subcutaneous mammary adenocarcinoma, T/C%
Experiment: NCI In Vivo Anticancer Drug Screen. Data for tumor model Mammary Adenocarcinoma CD8F1 (subcutaneous) in CD8F1
Conditions: higher = larger tumour
Procedure, shortened: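 Antitumor activity is assessed in transplantable-tumor mice by comparing the treated group with a vehicle-treated control group. Survival or tumor size serves as the measure, reported as T divided by C.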

[1] = endpoint: median tumor weight (est.), dose: 12.5 mg/kg/injection, schedule: Q07DX005 (ip), vehicle: saline with Tween-80
[2] = endpoint: median tumor weight (est.), dose: 25.0 mg/kg/injection, schedule: Q07DX005 (ip), vehicle: saline with Tween-80
[3] = endpoint: median tumor weight (est.), dose: 100.0 mg/kg/injection, schedule: Q07DX005 (ip), vehicle: saline with Tween-80
[4] = endpoint: median tumor weight (est.), dose: 200.0 mg/kg/injection, schedule: Q07DX005 (ip), vehicle: saline with Tween-80

## COc1cc(NS(C)(=O)=O)ccc1Nc1c2ccccc2nc2ccccc12
endpoint: mean tumor weight (est.), dose: 4.0 mg/kg/injection, schedule: Q07DX004 (ip), vehicle: saline
  T/C: 158 % of control
endpoint: mean tumor weight (est.), dose: 8.0 mg/kg/injection, schedule: Q07DX004 (ip), vehicle: saline
  T/C: 120 % of control
endpoint: mean tumor weight (est.), dose: 16.0 mg/kg/injection, schedule: Q07DX004 (ip), vehicle: saline
  T/C: 109 % of control
endpoint: mean tumor weight (est.), dose: 32.0 mg/kg/injection, schedule: Q07DX004 (ip), vehicle: saline
  T/C: 79 % of control
endpoint: mean tumor weight, dose: 2.0 mg/kg/injection, schedule: Q05DX005 (ip), vehicle: saline
  T/C: 66 % of control
endpoint: mean tumor weight, dose: 4.0 mg/kg/injection, schedule: Q05DX005 (ip), vehicle: saline
  T/C: 82 % of control
endpoint: mean tumor weight, dose: 4.0 mg/kg/injection, schedule: Q07DX004 (ip), vehicle: saline
  T/C: 51 % of control
endpoint: mean tumor weight, dose: 8.0 mg/kg/injection, schedule: Q05DX005 (ip), vehicle: saline
  T/C: 62 % of control
endpoint: mean tumor weight, dose: 8.0 mg/kg/injection, schedule: Q07DX004 (ip), vehicle: saline
  T/C: 28 % of control
endpoint: mean tumor weight, dose: 16.0 mg/kg/injection, schedule: Q05DX005 (ip), vehicle: saline
  T/C: 39 % of control
endpoint: mean tumor weight, dose: 16.0 mg/kg/injection, schedule: Q07DX004 (ip), vehicle: saline
  T/C: 23 % of control
endpoint: mean tumor weight, dose: 32.0 mg/kg/injection, schedule: Q07DX004 (ip), vehicle: saline
  T/C: 18 % of control
endpoint: median tumor weight (est.), dose: 1.0 mg/kg/injection, schedule: Q01DX005 (ip), vehicle: Klucel (hydroxypropylcellulose) (HPC)
  T/C: 73 % of control
endpoint: median tumor weight (est.), dose: 2.0 mg/kg/injection, schedule: Q01DX005 (ip), vehicle: Klucel (hydroxypropylcellulose) (HPC)
  T/C: 94 % of control
endpoint: median tumor weight (est.), dose: 2.0 mg/kg/injection, schedule: Q07DX005 (ip), vehicle: Klucel (hydroxypropylcellulose) (HPC)
  T/C: 195 % of control
endpoint: median tumor weight (est.), dose: 4.0 mg/kg/injection, schedule: Q01DX005 (ip), vehicle: Klucel (hydroxypropylcellulose) (HPC)
  T/C: 80 % of control
endpoint: median tumor weight (est.), dose: 4.0 mg/kg/injection, schedule: Q04DX005 (ip), vehicle: Klucel (hydroxypropylcellulose) (HPC)
  T/C: 119 % of control
endpoint: median tumor weight (est.), dose: 4.0 mg/kg/injection, schedule: Q07DX005 (ip), vehicle: Klucel (hydroxypropylcellulose) (HPC)
  T/C: 42 % of control and 65 % of control
endpoint: median tumor weight (est.), dose: 8.0 mg/kg/injection, schedule: Q01DX005 (ip), vehicle: Klucel (hydroxypropylcellulose) (HPC)
  T/C: 59 % of control
endpoint: median tumor weight (est.), dose: 8.0 mg/kg/injection, schedule: Q04DX005 (ip), vehicle: Klucel (hydroxypropylcellulose) (HPC)
  T/C: 35 % of control
endpoint: median tumor weight (est.), dose: 16.0 mg/kg/injection, schedule: Q01DX001 (ip), vehicle: Klucel (hydroxypropylcellulose) (HPC)
  T/C: 93 % of control
endpoint: median tumor weight (est.), dose: 16.0 mg/kg/injection, schedule: Q01DX005 (ip), vehicle: Klucel (hydroxypropylcellulose) (HPC)
  T/C: 38 % of control
endpoint: median tumor weight (est.), dose: 16.0 mg/kg/injection, schedule: Q04DX005 (ip), vehicle: Klucel (hydroxypropylcellulose) (HPC)
  T/C: 17 % of control
endpoint: median tumor weight (est.), dose: 32.0 mg/kg/injection, schedule: Q01DX001 (ip), vehicle: Klucel (hydroxypropylcellulose) (HPC)
  T/C: 35 % of control
endpoint: median tumor weight (est.), dose: 32.0 mg/kg/injection, schedule: Q07DX005 (ip), vehicle: Klucel (hydroxypropylcellulose) (HPC)
  T/C: 3 % of control and 10 % of control
endpoint: median tumor weight (est.), dose: 64.0 mg/kg/injection, schedule: Q01DX001 (ip), vehicle: Klucel (hydroxypropylcellulose) (HPC)
  T/C: 39 % of control

## Nc1nc([Se])c2ncn(C3OC(CO)C(O)C3O)c2n1 (stereo not given)
endpoint: median tumor weight (est.), dose: 2.0 mg/kg/injection, schedule: Q07DX005 (ip), vehicle: saline
  T/C: 92 % of control
endpoint: median tumor weight (est.), dose: 4.0 mg/kg/injection, schedule: Q07DX005 (ip), vehicle: saline
  T/C: 54 % of control
endpoint: median tumor weight (est.), dose: 8.0 mg/kg/injection, schedule: Q07DX005 (ip), vehicle: saline
  T/C: 68 % of control
endpoint: median tumor weight (est.), dose: 8.0 mg/kg/injection, schedule: Q07DX005 (ip), vehicle: suspension in saline
  T/C: 24 % of control
endpoint: median tumor weight (est.), dose: 16.0 mg/kg/injection, schedule: Q07DX005 (ip), vehicle: saline
  T/C: 70 % of control
endpoint: median tumor weight (est.), dose: 16.0 mg/kg/injection, schedule: Q07DX005 (ip), vehicle: suspension in saline
  T/C: 20 % of control
endpoint: median tumor weight (est.), dose: 32.0 mg/kg/injection, schedule: Q07DX005 (ip), vehicle: saline
  T/C: 30 % of control
endpoint: median tumor weight (est.), dose: 32.0 mg/kg/injection, schedule: Q07DX005 (ip), vehicle: suspension in saline
  T/C: 51 % of control
endpoint: median tumor weight (est.), dose: 64.0 mg/kg/injection, schedule: Q07DX005 (ip), vehicle: saline
  T/C: 27 % of control
endpoint: median tumor weight (est.), dose: 64.0 mg/kg/injection, schedule: Q07DX005 (ip), vehicle: suspension in saline
  T/C: 12 % of control

## OCC12COCN1COC2
endpoint: median tumor weight change, dose: 50.0 mg/kg/injection, schedule: Q01DX001 (ip), vehicle: saline
  T/C: 100 % of control
endpoint: median tumor weight change, dose: 100.0 mg/kg/injection, schedule: Q01DX001 (ip), vehicle: saline
  T/C: 107 % of control
endpoint: median tumor weight change, dose: 200.0 mg/kg/injection, schedule: Q01DX001 (ip), vehicle: saline
  T/C: 71 % of control
endpoint: median tumor weight change, dose: 400.0 mg/kg/injection, schedule: Q01DX001 (ip), vehicle: saline
  T/C: 87 % of control
endpoint: median tumor weight change, dose: 800.0 mg/kg/injection, schedule: Q01DX001 (ip), vehicle: saline
  T/C: 82 % of control

## C1CN1c1nc(N2CC2)nc(N2CC2)n1
endpoint: median tumor weight (est.), dose: 0.12 mg/kg/injection, schedule: Q07DX005 (ip), vehicle: saline
  T/C: 64 % of control and 86 % of control
endpoint: median tumor weight (est.), dose: 0.25 mg/kg/injection, schedule: Q07DX005 (ip), vehicle: saline
  T/C: 23 % of control and 28 % of control
endpoint: median tumor weight (est.), dose: 0.5 mg/kg/injection, schedule: Q07DX005 (ip), vehicle: saline
  T/C: 6 % of control and 10 % of control
endpoint: median tumor weight (est.), dose: 1.0 mg/kg/injection, schedule: Q07DX005 (ip), vehicle: saline
  T/C: 1 % of control
endpoint: median tumor weight change, dose: 0.62 mg/kg/injection, schedule: Q01DX001 (ip), vehicle: suspension in saline
  T/C: 18 % of control
endpoint: median tumor weight change, dose: 2.5 mg/kg/injection, schedule: Q01DX001 (ip), vehicle: suspension in saline
  T/C: -17 % of control and -41 % of control

## CNC(=O)OCc1c(COC(=O)NC)c(-c2ccc(Cl)c(Cl)c2)n2c1Cc1ccccc1C2
endpoint: median tumor weight change, dose: 125.0 mg/kg/injection, schedule: Q01DX001 (ip), vehicle: distilled water + Tween-80
  T/C: 77 % of control
endpoint: median tumor weight change, dose: 250.0 mg/kg/injection, schedule: Q01DX001 (ip), vehicle: distilled water + Tween-80
  T/C: 67 % of control
endpoint: median tumor weight change, dose: 500.0 mg/kg/injection, schedule: Q01DX001 (ip), vehicle: distilled water + Tween-80
  T/C: -12 % of control
endpoint: median tumor weight change, dose: 1000.0 mg/kg/injection, schedule: Q01DX001 (ip), vehicle: distilled water + Tween-80
  T/C: -53 % of control
endpoint: median tumor weight change, dose: 2000.0 mg/kg/injection, schedule: Q01DX001 (ip), vehicle: distilled water + Tween-80
  T/C: -71 % of control

## Nc1cc2[nH]cnc2c(=O)[nH]1
endpoint: mean tumor weight, dose: 20.0 mg/kg/injection, schedule: Q07DX006 (ip), vehicle: saline
  T/C: 83 % of control
endpoint: mean tumor weight, dose: 40.0 mg/kg/injection, schedule: Q07DX006 (ip), vehicle: saline
  T/C: 50 % of control
endpoint: mean tumor weight, dose: 80.0 mg/kg/injection, schedule: Q07DX006 (ip), vehicle: saline
  T/C: 76 % of control
endpoint: median tumor weight (est.), dose: 12.5 mg/kg/injection, schedule: Q07DX005 (ip), vehicle: suspension in saline
  T/C: 56 % of control
endpoint: median tumor weight (est.), dose: 25.0 mg/kg/injection, schedule: Q07DX005 (ip), vehicle: suspension in saline
  T/C: 79 % of control
endpoint: median tumor weight (est.), dose: 50.0 mg/kg/injection, schedule: Q07DX005 (ip), vehicle: suspension in saline
  T/C: 56 % of control
endpoint: median tumor weight (est.), dose: 100.0 mg/kg/injection, schedule: Q07DX005 (ip), vehicle: suspension in saline
  T/C: 80 % of control
endpoint: median tumor weight (est.), dose: 200.0 mg/kg/injection, schedule: Q07DX005 (ip), vehicle: suspension in saline
  T/C: 64 % of control

## Cc1ccoc1
endpoint: median tumor weight change, dose: 20.8 mg/kg/injection, schedule: Q03HX003 (ip), vehicle: saline with Tween-80
  T/C: 66 % of control
endpoint: median tumor weight change, dose: 41.6 mg/kg/injection, schedule: Q03HX003 (ip), vehicle: saline with Tween-80
  T/C: 82 % of control
endpoint: median tumor weight change, dose: 83.3 mg/kg/injection, schedule: Q03HX003 (ip), vehicle: saline with Tween-80
  T/C: 62 % of control
endpoint: median tumor weight change, dose: 166.6 mg/kg/injection, schedule: Q03HX003 (ip), vehicle: saline with Tween-80
  T/C: 73 % of control

## CCCCOC(=O)/C=C(\Br)C(=O)OCCCC
[1]
  T/C: 115 % of control
[2]
  T/C: 95 % of control and 119 % of control
[3]
  T/C: 100 % of control and 119 % of control
[4]
  T/C: 114 % of control

## Cc1cc(=NO)cc(C)n1O
endpoint: median tumor weight change, dose: 125.0 mg/kg/injection, schedule: Q01DX001 (ip), vehicle: distilled water + alcohol
  T/C: 52 % of control and 77 % of control
endpoint: median tumor weight change, dose: 250.0 mg/kg/injection, schedule: Q01DX001 (ip), vehicle: distilled water + alcohol
  T/C: 78 % of control and 80 % of control
endpoint: median tumor weight change, dose: 500.0 mg/kg/injection, schedule: Q01DX001 (ip), vehicle: distilled water + alcohol
  T/C: 69 % of control and 78 % of control

## CCOC(=O)C(C)(C)Oc1ccc(Cl)cc1
[1]
  T/C: 61 % of control
[2]
  T/C: 113 % of control
endpoint: median tumor weight (est.), dose: 50.0 mg/kg/injection, schedule: Q07DX005 (ip), vehicle: saline with Tween-80
  T/C: 84 % of control
[3]
  T/C: 72 % of control
[4]
  T/C: 77 % of control
endpoint: median tumor weight (est.), dose: 400.0 mg/kg/injection, schedule: Q07DX005 (ip), vehicle: saline with Tween-80
  T/C: 64 % of control

## OCC1OC(n2cnc3cc(Cl)c(Cl)cc32)C(O)C1O (stereo not given)
[1]
  T/C: 79 % of control
[2]
  T/C: 89 % of control and 92 % of control
[4]
  T/C: 80 % of control

— PubChem BioAssay AID220 (DTP/NCI, 2004)
